Cytotoxicity data for 71 compounds are collected here from ChEMBL document CHEMBL3507680, “University of Dundee, Gates Library screen for HepG2 cell viability”.

The series in a line: Human HepG2 cell viability assay in 384 well format. Particulars: HepG2 cells, read-out: Inhibition. Also on record: dose 125 nL, time 70.5 hour; concentration not given beside the values. It is filed as toxicity, cell-based.
In the case of `Cc1occc1C(=O)N1CCC2(CCCN(Cc3cccs3)C2)C1` (stereo unspecified), the cytotoxicity at 70.5 h turned out to be 0.121%.

For `Cc1ccccc1OCCN(C)Cc1noc(CC(C)C)n1`, the cytotoxicity at 70.5 h worked out at 4.63%.

As for `O=C(NCc1cc(-c2ccccc2)no1)NC1CCCCNC1=O` (stereo unspecified), the cytotoxicity at 70.5 h is 4.05%.

In the case of `CCOCCN1CCN(CC(=O)NC2(C#N)CCCC2)CC1CC` (stereo unspecified), the cytotoxicity at 70.5 h was 0.4%.

On to `c1cncc(NCCCNC2CCSC2)c1` (stereo unspecified), for which the cytotoxicity at 70.5 h was -3.16%.

Consider `O=S(=O)(NC1CCC2(CC1)OCCO2)c1cccc(Br)c1`, for which the cytotoxicity at 70.5 h turned out to be 12%.

Take `CC(Nc1cccc2c1OCCO2)C(=O)Nc1cccc(C#N)c1` (stereo unspecified): the cytotoxicity at 70.5 h stood at 3.49%.

As for `Cc1ccc2c(c1)OC(C)(C)CC2NC(=O)C1CCN(S(C)(=O)=O)CC1` (stereo unspecified), the cytotoxicity at 70.5 h is -5.08%.

On to `O=S(=O)(C1CC1)N1CCO[C@@H]2CN(Cc3cccs3)C[C@@H]2C1`, for which the cytotoxicity at 70.5 h was -5.47%.

For `Cc1ccc(CN(Cc2nc3c(cnn3C)c(=O)[nH]2)C2CC2)o1`, the cytotoxicity at 70.5 h was -5.9%.

As to `O=C(NCC(=O)N1CCN(c2ccccc2)CC1)c1sccc1C1CC1`, the cytotoxicity at 70.5 h is -2.46%.

As for `COc1ccc(N2CCC(C(=O)/N=c3/[nH]ccs3)CC2)nn1`, the cytotoxicity at 70.5 h was -7.23%.

On to `O[C@@H]1C[C@@H](c2nc(Cc3ccccc3)no2)N(CC2CC2)C1`, for which the cytotoxicity at 70.5 h stood at 2.65%.

Take `CC(C)C(NCc1ccc(Cn2cncn2)cc1)c1ccccc1` (stereo unspecified): the cytotoxicity at 70.5 h was -3.88%.

As to `O=C(COc1ccc(Cl)cc1)N1CCOCC1c1ncon1` (stereo unspecified), the cytotoxicity at 70.5 h was -1.69%.

Turning to `CCN(CC)C(CNCc1cc(F)cc(F)c1)c1ccco1` (stereo unspecified), the cytotoxicity at 70.5 h turned out to be 20.8%.

`N#Cc1cccc(NC(=O)N[C@H](CO)Cc2ccc(O)cc2)c1`: the cytotoxicity at 70.5 h is -9.73%.

With `CC(=O)N1C[C@@H](F)[C@@H](OCc2nc3ccccc3o2)C1`, the cytotoxicity at 70.5 h was -3.68%.

For the compound `Cc1ccc(C(=O)NC2CCN(Cc3nc(C(C)C)no3)CC2)s1`, the cytotoxicity at 70.5 h was -5.38%.

For the compound `Cc1c(C(=O)N2CCC(C(O)c3ccc(Cl)cc3)CC2)cnn1C` (stereo unspecified), the cytotoxicity at 70.5 h was -3.74%.

On to `CC(C)Oc1cccc(C(O)CNC(=O)CCc2ccncc2)c1` (stereo unspecified), for which the cytotoxicity at 70.5 h is -5.8%.

Take `OC1=C2C(=Nc3n[nH]c(O)c3C2c2ccco2)CCC1` (stereo unspecified): the cytotoxicity at 70.5 h is -9.2%.

Consider `CO[C@@H]1CC[C@H]2[C@H]1OCCN2Cc1ccc(F)c(F)c1`, for which the cytotoxicity at 70.5 h was -9.19%.

Take `Cc1nc(C)n(CC2CN(c3ncccc3C#N)CCO2)n1` (stereo unspecified): the cytotoxicity at 70.5 h was -0.989%.

As for `COc1cccc(CN(C)C(=O)CSc2ccc3c(c2)OCCO3)c1`, the cytotoxicity at 70.5 h is -4.28%.

Consider `Cc1c(Cn2cc(Cl)c(N)n2)cnn1C`, for which the cytotoxicity at 70.5 h was -13.5%.

In the case of `CC(NCc1cc(O)c2cccc(F)c2n1)c1ccc(S(C)(=O)=O)cc1` (stereo unspecified), the cytotoxicity at 70.5 h is -12.6%.

Consider `CCOCc1nc2c(c(N3CCCn4nc(C)cc4C3)n1)CCNCC2`, for which the cytotoxicity at 70.5 h turned out to be 23.6%.

As for `Cc1cccc2[nH]c(C3CCN(C(=O)c4cnc[nH]c4=O)CC3)nc12`, the cytotoxicity at 70.5 h is -1.84%.

Turning to `NC(=O)c1cnc(-c2ccccc2)nc1CCNC(=O)CN1CCCC1`, the cytotoxicity at 70.5 h was 9.13%.

In the case of `Cc1nc(CN2CCC(N(C)Cc3noc(C(C)C)n3)C2)cs1` (stereo unspecified), the cytotoxicity at 70.5 h worked out at 33.4%.

As to `CN(C)C[C@H]1OC[C@@H]2CN(C(=O)NCc3cccnc3)CC[C@@H]21`, the cytotoxicity at 70.5 h was found to be 0.184%.

As for `COc1c(C2CCCN2Cc2nc(-c3ccco3)no2)c(C)nn1C` (stereo unspecified), the cytotoxicity at 70.5 h is -2.62%.

Take `CCCNCc1ncc(C)c(OC)c1C`: the cytotoxicity at 70.5 h is -6.98%.

Turning to `CCCC(=O)N1CCC(c2nn(C)c(=O)n2-c2ccccc2)CC1`, the cytotoxicity at 70.5 h was -10.4%.

Turning to `COc1cc(Cl)ccc1C(=O)NCc1n[nH]c(C)n1`, the cytotoxicity at 70.5 h was 1.46%.

Turning to `Cc1ccc2cc(C3(O)CCN(C(=O)CN4CCCC4)CC3)ccc2n1`, the cytotoxicity at 70.5 h is -3.01%.

For the compound `Cc1cnc(CN(C)C2CCN(CCCc3ccccc3)C2)o1` (stereo unspecified), the cytotoxicity at 70.5 h was determined as 10%.

As for `CC(NC(=O)CCCc1ccc(Cl)cc1)c1nnn[nH]1` (stereo unspecified), the cytotoxicity at 70.5 h is -11.1%.

For `CN(Cc1nc(C(F)(F)F)cs1)C(=O)CCc1cccnc1`, the cytotoxicity at 70.5 h is -10.4%.

`CCCN(Cc1nccn1C)C(=O)c1cnn[nH]1`: the cytotoxicity at 70.5 h is 7.26%.

`Cc1noc(-c2ccnc(N3CCN(C4CCOCC4)CC3)c2)n1`: the cytotoxicity at 70.5 h is 10.1%.

`COc1ccccc1N1CCC(CNCc2ccc(C#N)cc2)C1` (stereo unspecified): the cytotoxicity at 70.5 h is 2.02%.

For the compound `C1CC(N2C[C@@H]3COC[C@]3(COCC3CCOCC3)C2)C1`, the cytotoxicity at 70.5 h is -1.94%.

On to `O=C(c1cc(Cl)c2c(c1)OCO2)N1CCN(c2cnccn2)CC1`, for which the cytotoxicity at 70.5 h came out at 0.695%.

As for `c1nc(CSc2nnc(C3CC3)s2)cs1`, the cytotoxicity at 70.5 h amounted to 1.83%.

On to `Cc1ccc(C)c(S(=O)(=O)NC(=O)c2cccc3c2OCCO3)c1`, for which the cytotoxicity at 70.5 h was -104%.

Take `CN(C)CC(=O)N1CCC2(CC1)COC(COc1ccccn1)C2` (stereo unspecified): the cytotoxicity at 70.5 h is -7.86%.

With `CC(C1CC1)N(C(=O)CNc1ccc(C#N)cc1)C1CC1` (stereo unspecified), the cytotoxicity at 70.5 h is -6.5%.

As for `COc1ccc(CC2CN(C(=O)c3ocnc3C)CCO2)cc1` (stereo unspecified), the cytotoxicity at 70.5 h is 14.4%.

`O=C(NCCNC(=O)C1CC1)c1sccc1Br`: the cytotoxicity at 70.5 h was -6.03%.

Take `Cn1cnnc1S(=O)(=O)Cc1cc(Cl)c2c(c1)OCCO2`: the cytotoxicity at 70.5 h was -1.41%.

Turning to `CNC(=O)[C@H]1C[C@@H]2CN(S(=O)(=O)c3ccc(C)cc3)C[C@@H]2N1C`, the cytotoxicity at 70.5 h is -1.06%.

Turning to `CN(C)CCCNCCC(Cc1ccccc1)C1CCOC(C)(C)C1` (stereo unspecified), the cytotoxicity at 70.5 h worked out at 1.12%.

Turning to `Cc1nccn1C1CCCN(C(=O)COC2CCCC2)C1` (stereo unspecified), the cytotoxicity at 70.5 h is -4.55%.

With `NC(=O)C1CCN(Cn2nc(-c3ccc(F)cc3)oc2=O)C1` (stereo unspecified), the cytotoxicity at 70.5 h is -7.79%.

Regarding `O=C(NCC1CCC1)c1ccnc(-n2ccnc2)c1`, the cytotoxicity at 70.5 h came to 1.75%.

Consider `COCCN1CC[C@@H]2OC[C@H](C(=O)NCc3cccs3)C[C@@H]2C1`, for which the cytotoxicity at 70.5 h amounted to 10.1%.

Turning to `CN(C)C(=O)CO[C@H]1CO[C@@]2(CCN(S(C)(=O)=O)C2)C1`, the cytotoxicity at 70.5 h is -6.98%.

For the compound `Cc1nn(C)c(Cl)c1C1CCCN1C(=O)c1cccc(C#N)c1` (stereo unspecified), the cytotoxicity at 70.5 h was determined as 0.647%.

`O=C1CCC2(CCCN(C(=O)C3CCCC3)C2)CN1CCc1c[nH]cn1` (stereo unspecified): the cytotoxicity at 70.5 h was -2.97%.

As to `CCN1Cc2cc3c(cc2NCCC1=O)OCO3`, the cytotoxicity at 70.5 h turned out to be 6.48%.

As for `Cn1cccc1C(=O)N1C[C@@H](OCc2cccnc2)[C@H]2OCCC[C@H]21`, the cytotoxicity at 70.5 h was 8.24%.

As for `CN(C)S(=O)(=O)N1CCCC(c2nccn2Cc2cccnc2)C1` (stereo unspecified), the cytotoxicity at 70.5 h was -4.26%.

`OCC1CCCCN1Cc1nc(Cc2cccc(F)c2)no1` (stereo unspecified): the cytotoxicity at 70.5 h is -12.1%.

For the compound `CC/C=C(/C)C(=O)NCCc1csc(N2CCCC2)n1`, the cytotoxicity at 70.5 h is -0.998%.

On to `CCO[C@@H]1CC[C@H]2[C@H]1OCCN2C(=O)c1ccc(C)o1`, for which the cytotoxicity at 70.5 h was -4.6%.

Regarding `O=C(c1cccnc1-n1cncn1)N1CCc2ccccc2C1`, the cytotoxicity at 70.5 h is -10.4%.

With `CS(=O)(=O)CCOCCNc1cncc(Br)c1`, the cytotoxicity at 70.5 h is -3.24%.

For `CNC(=O)c1cc2c(nc1NCC1CC1)CCN(S(C)(=O)=O)CC2`, the cytotoxicity at 70.5 h is -23.3%.

`CCn1c(N)nc2cc(C(=O)N(C)Cc3cc(C(C)(C)C)n[nH]3)cnc21`: the cytotoxicity at 70.5 h is -5.41%.
